# Results taken from US11780839B2, “Compounds for treating Huntington's disease” (PTC THERAPEUTICS, INC., priority 2018, dated 2023).
# Tested on: Endogenous Huntingtin Protein
# Assay: Endogenous Huntingtin Protein Assay (ELISA-based Meso Scale Discovery electrochemiluminescence)
# Format: cell-based
# Conditions: MSD electrochemiluminescence, Table 1
# How it was run: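 Huntingtin was captured overnight at 4 °C on plates coated with 1 μg/mL MW1 (polyQ-expanded) or MAB2166 antibody and BSA-blocked. Detection used a rabbit monoclonal and then a SULFO-TAG goat anti-rabbit antibody (0.25 μg/mL, 1 h each, room temperature). Signal was read by electrochemiluminescence.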
row,Structure (SMILES),IC50 [nM]
1,"CN(c1ncc(-c2ccc(-c3nnn(C)n3)cc2O)nn1)C1CC(C)(C)NC(C)(C)C1 [Cpd 143, 2-{3-[methyl(2,2,6,6-tetramethylpiperidin-4-yl)amino]-1,2,4-triazin-6-yl}-5-(2-methyl-2H-tetrazol-5-yl)phenol]",≤ 100
2,"CC1(C)CC(Nc2ncc(-c3ccc(Nc4cccnc4)cc3O)nn2)CC(C)(C)N1 [Cpd 315, 5-[(pyridin-3-yl)amino]2-{3-[(2,2,6,6-tetramethylpiperidin-4-yl)amino]-1,2,4-triazin-6-yl}phenol]",≤ 100
3,"CN(c1ncc(-c2ccc(-c3c[nH]nc3Cl)cc2O)nn1)C1CC(C)(C)NC(C)(C)C1 [Cpd 57, 5-(3-chloro-1H-pyrazol-4-yl)-2-{3-[methyl(2,2,6,6-tetramethylpiperidin-4-yl)amino]-1,2,4-triazin-6-yl}phenol]",≤ 100
4,"Cc1cn(-c2ccc(-c3cnc(N4CCC(NC(C)C)C4)nn3)c(O)c2)cn1 (stereo not drawn) [Cpd 326, 5-(4-methyl-1H-imidazol-1-yl)-2-(3-{3-[(propan-2-yl)amino]pyrrolidin-1-yl}-1,2,4-triazin-6-yl)phenol]",≤ 100
5,"CN(c1cnc(-c2ccc(-c3cn[nH]c3)cc2O)nn1)C1CC(C)(C)NC(C)(C)C1 [Cpd 24, 2-{6-[methyl(2,2,6,6-tetramethylpiperidin-4-yl)amino]-1,2,4-triazin-3-yl}-5-(1H-pyrazol-4-yl)phenol]",100 to 500
6,"Cn1ccc(-c2ccc(-c3cnc(N[C@H]4CC(C)(C)NC(C)(C)[C@H]4F)nn3)c(O)c2)n1 [Cpd 261, 2-(3-{[(3S,4S)-3-fluoro-2,2,6,6-tetramethylpiperidin-4-yl]amino}-1,2,4-triazin-6-yl)-5-(1-methyl-1H-pyrazol-3-yl)phenol]",≤ 100
7,"CN(c1ncc(-c2ccc(-c3c[nH]nn3)cc2O)nn1)C1CC(C)(C)NC(C)(C)C1 [Cpd 4, 2-{3-[methyl(2,2,6,6-tetramethylpiperidin-4-yl)amino]-1,2,4-triazin-6-yl}-5-(1H-1,2,3-triazol-4-yl)phenol]",≤ 100
8,"CN(c1ncc(-c2ccc(-c3ccc4[nH]ncc4n3)cc2O)nn1)C1CC(C)(C)NC(C)(C)C1 [Cpd 136, 2-{3-[methyl(2,2,6,6-tetramethylpiperidin-4-yl)amino]-1,2,4-triazin-6-yl}-5-(1H-pyrazolo[4,3-b]pyridin-5-yl)phenol]",≤ 100
9,"CN(c1ncc(-c2ccc(-n3cc(CO)cn3)cc2O)nn1)C1CC(C)(C)NC(C)(C)C1 [Cpd 161, 5-[4-(hydroxymethyl)-1H-pyrazol-1-yl]-2-{3-[methyl(2,2,6,6-tetramethylpiperidin-4-yl)amino]-1,2,4-triazin-6-yl}phenol]",≤ 100
10,"COc1cc(-c2cn[nH]c2)cc(O)c1-c1cnc(N2CCC(NC(C)(C)C)C2)nn1 (stereo not drawn) [Cpd 376, 2-{3-[3-(tert-butylamino)pyrrolidin-1-yl]-1,2,4-triazin-6-yl}-3-methoxy-5-(1H-pyrazol-4-yl)phenol]",≤ 100
11,"CN1[C@@H]2CCC[C@H]1CC(Nc1ncc(-c3ccc(-c4cn[nH]c4)cc3O)nn1)C2 (stereo partly drawn) [Cpd 77, 2-{3-{[(1R,3s,5S)-9-methyl-9-azabicyclo[3.3.1]nonan-3-yl]amino}-1,2,4-triazin-6-yl)-5-(1H-pyrazol-4-yl)phenol]",≤ 100
12,"CN(c1ncc(-c2ccc(-c3ccc4c(c3)nnn4C)cc2O)nn1)C1CC(C)(C)NC(C)(C)C1 [Cpd 200, 5-(1-methyl-1H-benzotriazol-5-yl)-2-{3-[methyl(2,2,6,6-tetramethylpiperidin-4-yl)amino]-1,2,4-triazin-6-yl}phenol]",≤ 100
13,"CN(c1ncc(-c2ccc(-c3cccnn3)cc2O)nn1)C1CC(C)(C)NC(C)(C)C1 [Cpd 84, 2-{3-[methyl(2,2,6,6-tetramethylpiperidin-4-yl)amino]-1,2,4-triazin-6-yl}-5-(pyridazin-3-yl)phenol]",≤ 100
14,"CN(c1ncc(-c2ccc(-c3ccc4c(ncn4C)n3)cc2O)nn1)C1CC(C)(C)NC(C)(C)C1 [Cpd 164, 5-(1-methyl-1H-imidazo[4,5-b]pyridin-5-yl)-2-{3-[methyl(2,2,6,6-tetramethylpiperidin-4-yl)amino]-1,2,4-triazin-6-yl}phenol]",100 to 500
15,"CN(c1ncc(-c2ccc(-c3ncc(F)cn3)cc2O)nn1)C1CC(C)(C)NC(C)(C)C1 [Cpd 112, 5-(5-fluoropyrimidin-2-yl)-2-{3-[methyl(2,2,6,6-tetramethylpiperidin-4-yl)amino]-1,2,4-triazin-6-yl}phenol]",100 to 500
16,"CN(c1cnc(-c2ccc(-c3ccc4c(cnn4C)n3)cc2O)nn1)C1CC(C)(C)NC(C)(C)C1 [Cpd 394, 5-(1-methyl-1H-pyrazolo[4,3-b]pyridin-5-yl)-2-{6-[methyl(2,2,6,6-tetramethylpiperidin-4-yl)amino]-1,2,4-triazin-3-yl}phenol]",≤ 100
17,"CN(c1ncc(-c2ccc(-c3ncns3)cc2O)nn1)C1CC(C)(C)NC(C)(C)C1 [Cpd 65, 2-{3-[methyl(2,2,6,6-tetramethylpiperidin-4-yl)amino]-1,2,4-triazin-6-yl}-5-(1,2,4-thiadiazol-5-yl)phenol]",≤ 100
18,"Cn1ncc2cc(-c3ccc(-c4cnc(N5CCC(NC(C)(C)C)C5)nn4)c(O)c3)cnc21 (stereo not drawn) [Cpd 221, 2-{3-[3-(tert-butylamino)pyrrolidin-1-yl]-1,2,4-triazin-6-yl}-5-(1-methyl-1H-pyrazolo[3,4-b]pyridin-5-yl)phenol]",> 500

# Further lines, results first:
row,IC50 [nM],Structure (SMILES)
1,≤ 100,"OCCCNC1CCN(c2ncc(-c3ccc(-c4cn[nH]c4)cc3O)nn2)C1 (stereo not drawn) [Cpd 371, 2-(3-{3-[(3-hydroxypropyl)amino]pyrrolidin-1-yl}-1,2,4-triazin-6-yl)-5-(1H-pyrazol-4-yl)phenol]"
2,> 500,"CN1CCC2(CC1)CN(c1ncc(-c3ccc(-c4ncco4)cc3O)nn1)C2 [Cpd 252, 2-[3-(7-methyl-2,7-diazaspiro[3.5]nonan-2-yl)-1,2,4-triazin-6-yl]-5-(1,3-oxazol-2-yl)phenol]"
3,> 500,"CN1CCCC2(CCN(c3ncc(-c4ccc(-c5cn[nH]c5)cc4O)nn3)CC2)C1 [Cpd 182, 2-[3-(2-methyl-2,9-diazaspiro[5.5]undecan-9-yl)-1,2,4-triazin-6-yl]-5-(1H-pyrazol-4-yl)phenol]"
4,≤ 100,"OCCNC1CCN(c2ncc(-c3ccc(-c4cn[nH]c4)cc3O)nn2)C1 (stereo not drawn) [Cpd 333, 2-(3-{3-[(2-hydroxyethyl)amino]pyrrolidin-1-yl}-1,2,4-triazin-6-yl)-5-(1H-pyrazol-4-yl)phenol]"
5,1000 to 3000,"CN1CCC2(CC1)CN(c1ncc(-c3ccc(-c4cnc5c(cnn5C)c4)cc3O)nn1)C2 [Cpd 224, 2-[3-(7-methyl-2,7-diazaspiro[3.5]nonan-2-yl)-1,2,4-triazin-6-yl]-5-(1-methyl-1H-pyrazolo[3,4-b]pyridin-5-yl)phenol]"
6,≤ 100,"Oc1cc(-c2cn[nH]c2)ccc1-c1cnc(N2CCC(CNC3CC4CCC(C3)O4)C2)nn1 (stereo not drawn) [Cpd 405, 2-[3-(3-{[(8-oxabicyclo[3.2.1]octan-3-yl)amino]methyl}pyrrolidin-1-yl)-1,2,4-triazin-6-yl]-5-(1H-pyrazol-4-yl)phenol]"
7,100 to 500,"CN1CC[C@H]2CN(c3ncc(-c4ccc(-c5c[nH]nc5F)cc4O)nn3)CC[C@H]21 [Cpd 153, 5-(3-fluoro-1H-pyrazol-4-yl)-2-{3-[(3aS,7aR)-1-methyloctahydro-5H-pyrrolo[3,2-c]pyridin-5-yl]-1,2,4-triazin-6-yl}phenol]"
8,1000 to 3000,"CC(C)NC1CCN(c2ncc(-c3ccc(-c4ccn(C)n4)cc3O)nn2)C1 (stereo not drawn) [Cpd 213, 5-(1-methyl-1H-pyrazol-3-yl)-2-(3-{3-[(propan-2-yl)amino]pyrrolidin-1-yl}-1,2,4-triazin-6-yl)phenol]"
9,≤ 100,"CC(C)(C)NC1CCN(c2ncc(-c3ccc(-c4c[nH]nc4Cl)cc3O)nn2)C1 (stereo not drawn) [Cpd 365, 2-{3-[3-(tert-butylamino)pyrrolidin-l-yl]-1,2,4-triazin-6-yl}-5-(3-chloro-1H-pyrazol-4-yl)phenol]"
10,≤ 100,"CC(C)(C)NC1CCN(c2ncc(-c3ccc(-c4c[nH]nn4)cc3O)nn2)C1 (stereo not drawn) [Cpd 225, 2-{3-[3-(tert-butylamino)pyrrolidin-1-yl]-1,2,4-triazin-6-yl}-5-(1H-1,2,3-triazol-4-yl)phenol]"
11,100 to 500,"Oc1cc(-c2cn[nH]c2)ccc1-c1cnc(N2CCC3(CNC3)C2)nn1 [Cpd 110, 2-[3-(2,6-diazaspiro[3.4]octan-6-yl)-1,2,4-triazin-6-yl]-5-(1H-pyrazol-4-yl)phenol]"
12,1000 to 3000,"Oc1cc(-c2cn[nH]c2)ccc1-c1cnc(N2CCC3(CCCNC3)CC2)nn1 [Cpd 180, 2-[3-(2,9-diazaspiro[5.5]undecan-9-yl)-1,2,4-triazin-6-yl]-5-(1H-pyrazol-4-yl)phenol]"
13,≤ 100,"CC1CN(c2ncc(-c3ccc(-c4cn[nH]c4)cc3O)nn2)CC(C)N1 (stereo not drawn) [Cpd 262, 2-[3-(3,5-dimethylpiperazin-1-yl)-1,2,4-triazin-6-yl]-5-(1H-pyrazol-4-yl)phenol]"
14,100 to 500,"CN1CCC12CCN(c1ncc(-c3ccc(-c4cn[nH]c4)cc3O)nn1)CC2 [Cpd 113, 2-[3-(1-methyl-1,7-diazaspiro[3.5]nonan-7-yl)-1,2,4-triazin-6-yl]-5-(1H-pyrazol-4-yl)phenol]"
15,100 to 500,"Oc1cc(-c2cn[nH]c2)ccc1-c1cnc(N2CCC(CNC3CCCC3)C2)nn1 (stereo not drawn) [Cpd 386, 2-(3-{3-[(cyclopentylamino)methyl]pyrrolidin-1-yl}-1,2,4-triazin-6-yl)-5-(1H-pyrazol-4-yl)phenol]"
16,≤ 100,"CC(C)(C)N[C@@H]1CCN(c2ncc(-c3ccc(-c4cn[nH]c4)cc3O)nn2)C1 [Cpd 356, 2-{3-[(3R)-3-(tert-butylamino)pyrrolidin-l-yl]-1,2,4-triazin-6-yl}-5-(1H-pyrazol-4-yl)phenol]"
17,≤ 100,"CC(C)NC1CCN(c2ncc(-c3ccc(-c4cn[nH]c4)cc3O)nn2)C1 (stereo not drawn) [Cpd 148, 2-(3-{3-[(propan-2-yl)amino]pyrrolidin-1-yl}-1,2,4-triazin-6-yl)-5-(1H-pyrazol-4-yl)phenol]"
18,≤ 100,"Oc1cc(-c2cn[nH]c2)ccc1-c1cnc(N2CCC3(CCNC3)C2)nn1 (stereo not drawn) [Cpd 354, 2-[3-(2,7-diazaspirol{4.4}nonan-2-yl)-1,2,4-triazin-6-yl]-5-(1H-pyrazol-4-yl)phenol]"
